# Values of other authors as cited in patent US20100197944A1, “DOCETAXEL PROCESS AND POLYMORPHS” (DR. REDDY'S LABORATORIES LIMITED, priority 2007, published 2010).
# Details: compared with anhydrous docetaxel
smiles,measurement,value
"CC(=O)O[C@@]12CO[C@@H]1C[C@H](O)[C@@]1(C)C(=O)[C@H](O)C3=C(C)[C@@H](OC(=O)[C@H](O)[C@@H](NC(=O)OC(C)(C)C)c4ccccc4)C[C@@](O)([C@@H](OC(=O)c4ccccc4)[C@H]21)C3(C)C [Docetaxel trihydrate, 4-acetoxy-2α-benzoyloxy-5β,20-epoxy-1,7β,10β-trihydroxy-9-oxo-tax-11-en-13-α-yl-(2R,3S)-3-tert-butoxycarbonylamino-2-hydroxy-3-phenylpropionate trihydrate]",Stability relative to the anhydrous product,substantially greater stability
